Common to all, as to format: cell-based
Assay [1] has as its target T1, PPARα (Homo sapiens, UniProt Q07869).
T1 sequence (Q07869 1-468): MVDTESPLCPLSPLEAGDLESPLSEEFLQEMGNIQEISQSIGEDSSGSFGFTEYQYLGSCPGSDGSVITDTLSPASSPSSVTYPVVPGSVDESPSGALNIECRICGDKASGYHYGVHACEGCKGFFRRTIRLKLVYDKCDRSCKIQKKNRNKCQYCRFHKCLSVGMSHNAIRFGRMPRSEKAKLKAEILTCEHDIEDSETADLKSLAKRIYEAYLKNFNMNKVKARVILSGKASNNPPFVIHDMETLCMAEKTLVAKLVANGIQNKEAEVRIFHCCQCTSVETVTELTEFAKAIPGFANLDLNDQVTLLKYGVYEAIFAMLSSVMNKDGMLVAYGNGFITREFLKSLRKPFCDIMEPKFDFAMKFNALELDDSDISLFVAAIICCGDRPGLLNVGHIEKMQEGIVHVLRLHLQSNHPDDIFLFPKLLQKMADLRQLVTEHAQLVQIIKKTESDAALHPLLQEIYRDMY
The assay can be described thus: PathHunter nuclear hormone receptor cell assay, chemiluminescence.

For assay [2], the target named is T2, PPARγ (Homo sapiens, UniProt P37231).
T2 sequence (P37231 1-505): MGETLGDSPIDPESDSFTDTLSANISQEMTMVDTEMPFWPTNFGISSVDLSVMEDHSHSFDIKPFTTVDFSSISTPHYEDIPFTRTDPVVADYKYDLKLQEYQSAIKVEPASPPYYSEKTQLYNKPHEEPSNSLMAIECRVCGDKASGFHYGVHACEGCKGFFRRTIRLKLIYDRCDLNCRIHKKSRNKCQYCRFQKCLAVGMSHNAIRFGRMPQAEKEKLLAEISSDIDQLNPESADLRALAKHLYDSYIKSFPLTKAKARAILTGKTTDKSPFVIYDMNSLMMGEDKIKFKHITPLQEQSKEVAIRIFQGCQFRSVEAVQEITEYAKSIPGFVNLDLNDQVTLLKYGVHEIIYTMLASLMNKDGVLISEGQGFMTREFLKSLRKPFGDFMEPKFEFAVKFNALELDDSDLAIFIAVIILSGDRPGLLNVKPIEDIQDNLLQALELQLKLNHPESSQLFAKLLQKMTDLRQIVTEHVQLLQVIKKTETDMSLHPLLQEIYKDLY
The description is as above.

Assay [3] deals with GPR84 (Homo sapiens, UniProt Q9NQS5). The assay can be described thus: Hit Hunter cAMP assay in cAMP Hunter cells.
Chain of GPR84 (Q9NQS5 whole entry): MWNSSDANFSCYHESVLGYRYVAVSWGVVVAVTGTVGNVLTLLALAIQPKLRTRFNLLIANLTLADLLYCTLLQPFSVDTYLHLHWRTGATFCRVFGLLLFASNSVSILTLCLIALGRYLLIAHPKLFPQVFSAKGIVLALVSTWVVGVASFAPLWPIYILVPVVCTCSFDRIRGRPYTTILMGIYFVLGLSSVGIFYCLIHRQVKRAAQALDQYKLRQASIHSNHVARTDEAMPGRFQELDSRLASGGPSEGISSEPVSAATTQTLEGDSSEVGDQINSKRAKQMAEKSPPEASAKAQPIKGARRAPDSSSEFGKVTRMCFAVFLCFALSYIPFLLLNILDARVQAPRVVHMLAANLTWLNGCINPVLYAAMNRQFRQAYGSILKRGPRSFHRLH

In the case of `CCCCCOc1cccc(C(=O)O)c1C` [SEFA-6179], the EC50 in assay [1] came to 4.4 µM; in assay [2] it was 40 µM; in assay [3], 12 µM.

The values are drawn from PMC10527514 (Gastroenterology, 2023).
